Data from patent US12336981B2, “Compounds and compositions for the inhibition of NAMPT” (Valo Health, Inc., priority 2010, dated 2025).
pIC50: −log10 of the molar value. Like-named read-outs stand apart in the source and are kept apart here.

Key:
[1] = tested on: A2780 cells; test: In-vitro cell proliferation assay (SRB), A2780 cells; type: cell-based; conditions: Homo sapiens, A2780, 72 h, A2780 cells, 72 hours, read-out: A2780 IC50
How it was run: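 Growth inhibition was derived from background-corrected SRB absorbance (570 nm), measured on cells fixed in 6% TCA after three days of compound treatment under 5% CO2 at 37° C.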

[2] = molecular target: T1, NAMPT (Homo sapiens, UniProt P43490); test: Biochemical inhibition assay: NAMPT enzymatic reaction, NMN quantified by mass spectrometry; conditions: read-out: Biochem IC50
T1 construct: His tag; host or cells: E. coli
How it was run: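 Inhibition of E. coli-expressed His-tagged human NAMPT, measured as NMN formation by mass spectrometry after a 30 min room-temperature reaction containing 1 μM NAM, 100 μM PRPP and 2.5 mM ATP.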

T1 sequence (P43490 whole entry): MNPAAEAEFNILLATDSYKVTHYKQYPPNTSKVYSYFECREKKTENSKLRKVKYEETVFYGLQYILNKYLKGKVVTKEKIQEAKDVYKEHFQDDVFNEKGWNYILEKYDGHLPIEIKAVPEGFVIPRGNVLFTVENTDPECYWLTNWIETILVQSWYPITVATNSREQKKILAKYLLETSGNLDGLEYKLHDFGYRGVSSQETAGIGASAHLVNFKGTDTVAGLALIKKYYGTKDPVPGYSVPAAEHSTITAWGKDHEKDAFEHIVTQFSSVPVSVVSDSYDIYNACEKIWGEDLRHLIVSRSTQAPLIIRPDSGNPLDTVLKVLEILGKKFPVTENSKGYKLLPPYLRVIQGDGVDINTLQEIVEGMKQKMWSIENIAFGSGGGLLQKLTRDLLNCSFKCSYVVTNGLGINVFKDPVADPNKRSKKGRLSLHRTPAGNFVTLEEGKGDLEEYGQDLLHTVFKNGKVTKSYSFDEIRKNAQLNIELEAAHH

Compound	pIC50 ([1]; SRB assay)	pIC50 ([2]; NAMPT enzymatic reaction)	pIC50 ([1]; SRB)	pIC50 ([2]; NAMPT enzymatic assay)
O=C(NCc1ccc(S(=O)(=O)c2ccccc2)cc1)c1cc(-c2ccccn2)n[nH]1 [N-{[4-(benzenesulfonyl)phenyl]methyl}-3-(pyridin-2-yl)-1H-pyrazole-5-carboxamide]	4.63	5.13		
O=C(NCc1ccc(S(=O)(=O)c2cccc(OCCN3CCOCC3)c2)cc1)c1cc2ccncc2s1			8.82	8.52
O=C(NCc1ccc(S(=O)(=O)N2CC3CCC(C2)O3)cc1)c1cc2ccncc2s1 [N-[(4-{8-oxa-3-azabicyclo[3.2.1]octane-3-sulfonyl}phenyl)methyl]thieno[2,3-c]pyridine-2-carboxamide]	8.52	7.82		
Cc1cc(C)cc(S(=O)(=O)c2ccc(CNC(=O)c3cc4ccncc4s3)cc2)c1 [N-({4-[(3,5-dimethylbenzene)sulfonyl]phenyl}methyl)thieno[2,3-c]pyridine-2-carboxamide]	8.74	8.30		
CCCCOc1ccc(S(=O)(=O)c2ccc(CNC(=O)c3cc4ccncc4o3)cc2)c(C)c1		7.80	7.19	
COc1ccc(S(=O)(=O)c2ccc(CNC(=O)c3cc4cnccc4[nH]3)cc2)cc1Cl		7.97	8.68	
CCOCc1ccc(S(=O)(=O)c2ccc(CNC(=O)c3cnc4[nH]ncc4c3)cc2)cc1 [N-[(4-{[4-(ethoxymethyl)benzene]sulfonyl}phenyl)methyl]-1H-pyrazolo[3,4-b]pyridine-5-carboxamide]			7.89	7.58
CCOc1cccc(S(=O)(=O)c2ccc(CNC(=O)c3cc4cnccc4[nH]3)cc2)c1 [N-({4-[(3-ethoxybenzene)sulfonyl]phenyl}methyl)-1H-pyrrolo[3,2-c]pyridine-2-carboxamide]		8.11	8.46	
O=C(NCc1ccc(S(=O)(=O)c2ccccc2)cc1)c1cc(-c2ccncc2)n[nH]1 [N-{[4-(benzenesulfonyl)phenyl]methyl}-3-(pyridin-4-yl)-1H-pyrazole-5-carboxamide]	4.67	5.50		
COc1ccc(F)cc1S(=O)(=O)c1ccc(CNC(=O)c2cc3ccncc3o2)cc1		8.66	7.91	
CCOc1ccc(S(=O)(=O)c2ccc(CNC(=O)c3cc4cnccc4[nH]3)cc2)c(C)c1		8.04	7.90	
Cc1cc(S(=O)(=O)c2ccc(CNC(=O)c3cnc4[nH]ncc4c3)cc2)ccc1F		8.30	8.08	
O=C(NCc1ccc(S(=O)(=O)c2ccc(F)cc2F)cc1)c1ccc2nccn2c1 [N-({4-[(2,4-difluorobenzene)sulfonyl]phenyl}methyl)imidazo[1,2-a]pyridine-6-carboxamide]		7.55	7.55	
O=C(NCc1ccc(S(=O)(=O)c2cccc(-c3ccc(F)c(F)c3)n2)cc1)c1cc2ccncc2s1 [N-({4-[6-(3,4-difluorophenyl)pyridine-2-sulfonyl]phenyl}methyl)thieno[2,3-c]pyridine-2-carboxamide]			7.88	8.66
O=C(NCc1ccc(S(=O)(=O)c2ccc(C(F)(F)F)cn2)cc1)c1ccc2nccn2c1 [N-({4-[5-(trifluoromethyl)pyridine-2-sulfonyl]phenyl}methyl)imidazo[1,2-a]pyridine-6-carboxamide]			7.49	7.33
O=C(NCc1ccc(S(=O)(=O)c2nccs2)cc1)c1cc2ccncc2o1 [N-{[4-(1,3-thiazole-2-sulfonyl)phenyl]methyl}furo[2,3-c]pyridine-2-carboxamide]			7.10	7.70
O=C(NCc1ccc(S(=O)(=O)c2cnn(-c3cccc(Cl)c3)c2)cc1)c1cc2ccncc2o1 [N-({4-[1-(3-chlorophenyl)-1H-pyrazole-4-sulfonyl]phenyl}methyl)furo[2,3-c]pyridine-2-carboxamide]			7.85	7.94
Cc1ccc(S(=O)(=O)c2ccc(CNC(=O)c3cnc4nccn4c3)cc2)c(Cl)c1		8.82	9.15	

Compound	pIC50 ([1]; SRB assay)	pIC50 ([2]; NAMPT enzymatic reaction)	pIC50 ([1]; SRB)	pIC50 ([2]; NAMPT enzymatic assay)
O=C(NCc1ccc(S(=O)(=O)c2ccccc2)cc1)N1CCc2nocc2C1 [N-{[4-(benzenesulfonyl)phenyl]methyl}-4H,5H,6H,7H-[1,2]oxazolo[4,3-c]pyridine-5-carboxamide]	< 5.70	< 5.70		
CCCOc1ccc(S(=O)(=O)c2ccc(CNC(=O)c3ccc4nccn4c3)cc2)cc1		8.21	8.72	
COc1ccc(S(=O)(=O)c2ccc(CNC(=O)c3ccc4nccn4c3)cc2)c(F)c1 [N-({4-[(2-fluoro-4-methoxybenzene)sulfonyl]phenyl}methyl)imidazo[1,2-a]pyridine-6-carboxamide]		7.38	7.64	
Cc1ccc(C)c(S(=O)(=O)c2ccc(CNC(=O)c3cc4ccncc4o3)cc2)c1		7.74	7.62	
CC(C)NC(=O)c1cc(S(=O)(=O)c2ccc(CNC(=O)c3cc4ccncc4s3)cc2)ccc1F			8.17	7.67
CC(C)Oc1cccc(S(=O)(=O)c2ccc(CNC(=O)c3cnc4[nH]ncc4c3)cc2)c1			7.61	7.34
Cc1ccccc1S(=O)(=O)c1ccc(CNC(=O)c2cc3cnccc3[nH]2)cc1 [N-({4-[(2-methylbenzene)sulfonyl]phenyl}methyl)-1H-pyrrolo[3,2-c]pyridine-2-carboxamide]	7.89	7.85		
O=C(NCc1ccc(S(=O)(=O)c2cccc(N3CCCC3)c2)cc1)c1cc2cnccc2[nH]1			8.55	7.87
CCCCOc1ccc(S(=O)(=O)c2ccc(CNC(=O)c3cc4ccncc4o3)cc2)cc1Cl		8.33	8.00	
O=C(NCc1ccc(S(=O)(=O)c2ccc(C(F)(F)F)cc2C(F)(F)F)cc1)c1cc2cnccc2[nH]1			7.85	7.40
COc1c(C)cc(S(=O)(=O)c2ccc(CNC(=O)c3cnc4[nH]ncc4c3)cc2)cc1C [N-({4-[(4-methoxy-3,5-dimethylbenzene)sulfonyl]phenyl}methyl)-1H-pyrazolo[3,4-b]pyridine-5-carboxamide]		8.30	8.73	
COc1c(F)cccc1S(=O)(=O)c1ccc(CNC(=O)c2cc3ccncc3o2)cc1		7.78	7.51	
Cc1nc(-c2cccc(S(=O)(=O)c3ccc(CNC(=O)c4cc5ccncc5s4)cc3)c2)no1			9.00	8.48
CCOc1cc(Cl)ccc1S(=O)(=O)c1ccc(CNC(=O)c2ccc3nccn3c2)cc1		8.39	9.15	
O=C(NCc1ccc(S(=O)(=O)c2cccc(N3CCCCC3)c2)cc1)c1cc2cnccc2[nH]1			8.48	7.84
CC(C)COc1cc(F)cc(S(=O)(=O)c2ccc(CNC(=O)c3cc4cnccc4[nH]3)cc2)c1			8.15	7.88
Cc1ccc(S(=O)(=O)c2ccc(CNC(=O)c3cc4ccncc4s3)cc2)cn1 [N-{[4-(6-methylpyridine-3-sulfonyl)phenyl]methyl}thieno[2,3-c]pyridine-2-carboxamide]			8.20	7.66
COc1cc(F)c(F)cc1S(=O)(=O)c1ccc(CNC(=O)c2ccc3nccn3c2)cc1 [N-({4-[(4,5-difluoro-2-methoxybenzene)sulfonyl]phenyl}methyl)imidazo[1,2-a]pyridine-6-carboxamide]		7.55	8.17	
